Laboratory results: BindingDB's records for doi:10.1021/jm00076a005 (Glaxo Group Research, 1993)

Target: T1, Gag-Pol polyprotein [588-1027]/[588-1147] (Human immunodeficiency virus 1, UniProt P04585)
T1 construct: 588-1027; 588-1147
Test: HIV-1 RT Assay
Source text: The IC50 of reverse transcriptase is the concentration that inhibits 50% of recombinant HIV-1 RT RNA-directed DNA polymerase activity in vitro.

SMILES	IC50 (pH 8, 37 °C)	IC50
Cc1nc(CCCCCO)n2nc(Cl)ccc12 [5-{2-chloro-5-methylimidazo[1,5-a]pyridazin-7-yl}pentan-1-ol]	100000 nM	
Cc1nc(CCCCCCC(=O)c2ccccc2)n2nc(-n3cncn3)ccc12 [7-[5-methyl-2-(1H-1,2,4-triazol-1-yl)imidazo[1,5-a]pyridazin-7-yl]-1-phenylheptan-1-one]		100 nM
Cc1nc(CCCCCCC(=O)c2ccccc2)n2nc(-n3cncc3C)ccc12 [7-[5-methyl-2-(5-methyl-1H-imidazol-1-yl)imidazo[1,5-a]pyridazin-7-yl]-1-phenylheptan-1-one]		100 nM
